Reference: US10874733B2 (priority 2016, dated 2020)

Experiments:
Assay type in all cases: physicochemical
[1] = Liposome size by dynamic light scattering (hydrodynamic size); details: for Liposome size (d, nm): DMPC:DOTAP liposome
Method: (§1) 1 mL of each of the sample of the lipid dissolution step and 1 mL of a sample obtained by simply mixing the glycolipid of Preparation Example 2-(3) with liposome were added to a cuvette, and a hydrodynamic size was measured using a dynamic light-scattering apparatus (Malvern instrument, ZSP nano) (Table 2).

[2] = Liposome size homogeneity (PDI, size distribution) by dynamic light scattering; details: for Liposome PDI: DMPC:DOTAP liposome
Method: as §1, with “and distribution were analyzed” for “was measured”, “3, FIGS. 3 and 4). FIG. 3 is a diagram showing a liposome size distribution in a lipid-solubilization step, and FIG. 4 is a diagram showing a liposome size distribution in a step of simply mixing glycolipid with a liposome.” for “2).”

[3] = Liposome surface charge (zeta potential); details: for Liposome surface charge (mV): DMPC:DOTAP liposome
Method: as §1, with “with a” for “with”, “loaded on” for “added to”, “cuvette for measuring a surface charge (zeta potential),” for “cuvette,”, “surface charge” for “hydrodynamic size”, “4).” for “2).”

[4] = lipid dissolution step, glycolipid content 1 mol %
[5] = lipid dissolution step, glycolipid content 3 mol %
[6] = step of simple mixing with liposome, glycolipid content 1 mol %
[7] = step of simple mixing with liposome, glycolipid content 3 mol %
[8] = step of simple mixing with liposome, glycolipid content 6 mol %
[9] = lipid dissolution step, glycolipid content 6 mol %

## Monophosphoryl lipid A [MPL]
[1]; glycolipid incorporated in lipid dissolution step, glycolipid content 6 mol %
  Liposome size (d, nm): 355.4 nm
[1]; [4]
  Liposome size (d, nm): 367.9 nm
[1]; [5]
  Liposome size (d, nm): 309.2 nm
[1]; [6]
  Liposome size (d, nm): 694.9 nm
[1]; [7]
  Liposome size (d, nm): 1206.1 nm
[1]; [8]
  Liposome size (d, nm): 1538.7 nm
[1]; glycolipid simply mixed with liposome
  Change of liposome size on simple mixing with a liposome: tended to increase in size
[2]; [4]
  Liposome PDI: 0.353
[2]; [5]
  Liposome PDI: 0.412
[2]; [9]
  Liposome PDI: 0.405
[2]; [6]
  Liposome PDI: 0.552
[2]; [7]
  Liposome PDI: 0.793
[2]; [8]
  Liposome PDI: 0.887
[2]; glycolipid incorporated during lipid dissolution (encapsulated liposome), FIG. 3
  Liposome size distribution: not uniform
[2]; over glycolipid contents 6, 3, 1 mol %
  Dispersibility of the liposome (PDI): increased depending on concentration
[2]; simple mixing of liposome with glycolipid (adsorbed liposome), FIG. 4
  Liposome size distribution: not uniform
[3]; [4]
  Liposome surface charge (mV): 57.0 ± 3.0 mV
[3]; [5]
  Liposome surface charge (mV): 56.2 ± 0.6 mV
[3]; [9]
  Liposome surface charge (mV): 23.7 ± 0.6 mV
[3]; [6]
  Liposome surface charge (mV): 57.8 ± 1.6 mV
[3]; [7]
  Liposome surface charge (mV): 56.9 ± 3.4 mV
[3]; [8]
  Liposome surface charge (mV): 48.5 ± 1.4 mV
[3]; mixed at a high content of 6 mol %
  Surface charge change: decreased sharply
